Results taken from patent publication US12697315B2, “Treatment for interstitial lung disease” (United Therapeutics Corporation, priority 2020, dated 2026).

Assays:
[1] = test system: patients with interstitial lung disease and pulmonary hypertension; assay: Adverse events and serious adverse events, INCREASE; conditions: 16-week trial
Text: Safety assessments consisted of the development of AEs, vital signs, clinical laboratory parameters, ECG parameters, hospitalizations due to cardiopulmonary indications, exacerbations of underlying lung disease, and oxygenation.
Safety end points included adverse events, abnormal laboratory results, oxygenation as measured by pulse oximetry (Spo2) and supplemental oxygen requirement, changes in pulmonary function test results, hospitalization for a cardiopulmonary indication, and investigator-reported exacerbations of underlying lung disease, defined as acute, clinically significant respiratory deterioration characterized by evidence of new widespread alveolar abnormality.

NT-proBNP = assay: Plasma NT-proBNP level, INCREASE; format: in vivo, human; conditions: for NT-proBNP treatment ratio (ratio of ratios between treatment groups): vs placebo, week 16
Method: We enrolled patients with interstitial lung disease and pulmonary hypertension (documented by right heart catheterization) in a multicenter, randomized, double-blind, placebo-controlled, 16-week trial. Patients were assigned in a 1:1 ratio to receive inhaled treprostinil, administered by means of an ultrasonic, pulsed-delivery nebulizer in up to 12 breaths (total, 72 μg) four times daily, or placebo. The primary efficacy end point was the difference between the two treatment groups in the change in peak 6-minute walk distance from baseline to week 16. Secondary end points included the change in N-terminal pro-B-type natriuretic peptide (NT-proBNP) level at week 16 and the time to clinical worsening.
The 6-minute walk test was performed and laboratory data were obtained at baseline and at weeks 4, 8, 12, and 16, or at the time of early discontinuation of treprostinil or placebo. Each 6-minute walk test was performed 10 to 60 minutes after the most recent dose of active drug or placebo, which is the time of peak plasma treprostinil exposure. A trough test was performed at week 15 at least 4 hours after the participant received a dose of treprostinil or placebo and at least 24 hours before the week 16 test. Pulse oximetry was performed immediately before, during, and after each 6-minute walk test. Measurement of N-terminal pro-B-type natriuretic peptide (NT-proBNP) levels and pulmonary function tests were performed at baseline and at weeks 8 and 16 (or at early discontinuation) after the patients recovered from the 6-minute walk test. The St. George's Respiratory Questionnaire (SGRQ), a quality-of-life measure, was completed at baseline and week 16 or at the time of early discontinuation.
The primary end point of the trial was the difference between the two groups in the change in peak 6-minute walk distance from baseline to week 16. Secondary efficacy end points were analyzed in the following hierarchical testing order: the change in NT-proBNP level from baseline to week 16, the time to clinical worsening, the change in 6-minute walk distance at peak plasma treprostinil level at week 12, and the change in 6-minute walk distance at trough treprostinil level at week 15. The time to clinical worsening was evaluated from the time of randomization until the patient's withdrawal from the trial and was defined as the time until the occurrence of any one of the following events: hospitalization for a cardiopulmonary indication, a decrease in 6-minute walk distance greater than 15% from baseline that was directly related to the disease under study at two consecutive visits and at least 24 hours apart, death from any cause, or lung transplantation.

CCCCC[C@H](O)CC[C@@H]1[C@H]2Cc3cccc(OCC(=O)O)c3C[C@H]2C[C@H]1O [Inhaled treprostinil, treprostinil]
patients with serious adverse events [1]: patients (23.3%)
Adverse event: Cough ([1]; N = 163): 71 (43.6) no. of patients (%)
Adverse event: Diarrhea ([1]; N = 163): 22 (13.5) no. of patients (%)
Adverse event: Dizziness ([1]; N = 163): 30 (18.4) no. of patients (%)
Adverse event: Dyspnea ([1]; N = 163): 41 (25.2) no. of patients (%)
Adverse event: Fatigue ([1]; N = 163): 23 (14.1) no. of patients (%)
Adverse event: Headache ([1]; N = 163): 45 (27.6) no. of patients (%)
Adverse event: NT-proBNP increased ([1]; N = 163): 9 (5.5) no. of patients (%)
Adverse event: Nausea ([1]; N = 163): 25 (15.3) no. of patients (%)
Adverse event: Oropharyngeal pain ([1]; N = 163): 18 (11.0) no. of patients (%)
Adverse event: Throat irritation ([1]; N = 163): 20 (12.3) no. of patients (%)
Any Serious Event, number of patients ([1]; N = 163): 38 patients
Patients with ≥1 adverse event ([1]; N = 163): 152 (93.3) no. (%)
Patients with ≥1 serious adverse event ([1]; N = 163): 38 (23.3) no. (%)
Serious adverse event: Abdominal pain ([1]; N = 163): 0 n
Serious adverse event: Acute kidney injury ([1]; N = 163): 0 n
Serious adverse event: Acute myocardial infarction ([1]; N = 163): 1 n
Serious adverse event: Acute respiratory failure ([1]; N = 163): 4 n
Serious adverse event: Acute right ventricular failure ([1]; N = 163): 1 n
Serious adverse event: Arrhythmia ([1]; N = 163): 1 n
Serious adverse event: Aspiration ([1]; N = 163): 0 n
Serious adverse event: Atrial fibrillation ([1]; N = 163): 0 n
Serious adverse event: B-cell lymphoma ([1]; N = 163): 1 n
Serious adverse event: Bradycardia ([1]; N = 163): 0 n
Serious adverse event: Bronchitis ([1]; N = 163): 2 n
Serious adverse event: Bronchopulmonary aspergillosis ([1]; N = 163): 1 n
Serious adverse event: Cardiac arrest ([1]; N = 163): 1 n
Serious adverse event: Cardiac failure ([1]; N = 163): 0 n
Serious adverse event: Cardiac failure acute ([1]; N = 163): 0 n
Serious adverse event: Cardiac failure congestive ([1]; N = 163): 1 n
Serious adverse event: Cardiogenic shock ([1]; N = 163): 0 n
Serious adverse event: Cardiopulmonary failure ([1]; N = 163): 1 n
Serious adverse event: Cellulitis ([1]; N = 163): 1 n
Serious adverse event: Cerebral haemorrhage ([1]; N = 163): 1 n
Serious adverse event: Chest pain ([1]; N = 163): 1 n
Serious adverse event: Chronic obstructive pulmonary disease ([1]; N = 163): 2 n
Serious adverse event: Chronic respiratory failure ([1]; N = 163): 2 n
Serious adverse event: Chronic right ventricular failure ([1]; N = 163): 0 n
Serious adverse event: Coagulopathy ([1]; N = 163): 0 n
Serious adverse event: Combined pulmonary fibrosis and emphysema ([1]; N = 163): 1 n
Serious adverse event: Cor pulmonale ([1]; N = 163): 1 n
Serious adverse event: Cor pulmonale acute ([1]; N = 163): 0 n
Serious adverse event: Coronary artery disease ([1]; N = 163): 0 n
Serious adverse event: Death with unknown cause ([1]; N = 163): 3 n
Serious adverse event: Disease progression ([1]; N = 163): 0 n
Serious adverse event: Dyspnoea ([1]; N = 163): 3 n
Serious adverse event: Epistaxis ([1]; N = 163): 0 n
Serious adverse event: Fluid overload ([1]; N = 163): 0 n
Serious adverse event: Haematochezia ([1]; N = 163): 0 n
Serious adverse event: Haemoptysis ([1]; N = 163): 1 n
Serious adverse event: Hyperglycaemia ([1]; N = 163): 1 n
Serious adverse event: Hypertension ([1]; N = 163): 0 n
Serious adverse event: Hypervolaemia ([1]; N = 163): 1 n
Serious adverse event: Hypoxia ([1]; N = 163): 1 n
Serious adverse event: Idiopathic pulmonary fibrosis ([1]; N = 163): 1 n
Serious adverse event: Influenza ([1]; N = 163): 1 n
Serious adverse event: Interstitial lung disease ([1]; N = 163): 3 n
Serious adverse event: Left ventricular failure ([1]; N = 163): 1 n
Serious adverse event: Lumbar vertebral fracture ([1]; N = 163): 0 n
Serious adverse event: Metabolic encephalopathy ([1]; N = 163): 0 n
Serious adverse event: Pain ([1]; N = 163): 0 n
Serious adverse event: Pain in extremity ([1]; N = 163): 1 n
Serious adverse event: Pneumonia ([1]; N = 163): 1 n
Serious adverse event: Pneumonia influenzal ([1]; N = 163): 0 n
Serious adverse event: Pneumothorax ([1]; N = 163): 1 n
Serious adverse event: Post procedural infection ([1]; N = 163): 0 n
Serious adverse event: Presyncope ([1]; N = 163): 0 n
Serious adverse event: Pulmonary congestion ([1]; N = 163): 0 n
Serious adverse event: Pulmonary hypertension ([1]; N = 163): 1 n
Serious adverse event: Pulmonary oedema ([1]; N = 163): 1 n
Serious adverse event: Respiratory distress ([1]; N = 163): 0 n
Serious adverse event: Respiratory failure ([1]; N = 163): 2 n
Serious adverse event: Right ventricular failure ([1]; N = 163): 1 n
Serious adverse event: Scleroderma ([1]; N = 163): 0 n
Serious adverse event: Sepsis ([1]; N = 163): 0 n
Serious adverse event: Syncope ([1]; N = 163): 1 n
Serious adverse event: Tachycardia ([1]; N = 163): 1 n
Serious adverse event: Transplant dysfunction ([1]; N = 163): 0 n
Serious adverse event: Upper respiratory tract infection ([1]; N = 163): 2 n
Serious adverse event: Urosepsis ([1]; N = 163): 0 n
Total no. of adverse events ([1]; N = 163): 890
Total no. of adverse events leading to withdrawal of treprostinil or placebo ([1]; N = 163): 47
Total no. of serious adverse events ([1]; N = 163): 53
patients with serious adverse events ([1]; listed as inhaled treprostinil): 23.3%
Change in plasma concentration of NT-proBNP from baseline to wk 16, Mean (±SD) change (NT-proBNP; 156 patients): -396.35 ± 1904.90 pg/mL
Change in plasma concentration of NT-proBNP from baseline to wk 16, Median (NT-proBNP; 156 patients): -22.65 pg/mL
reduction in NT-proBNP compared to placebo (NT-proBNP; Week 16): 42%
reduction in NT-proBNP levels from baseline (NT-proBNP; Week 16): 15%
NT-proBNP treatment ratio (ratio of ratios between treatment groups) (NT-proBNP; listed as Inhaled Treprostinil): ±0.58 ± 0.06
NT-proBNP treatment ratio (ratio of ratios between treatment groups) (NT-proBNP; listed as inhaled treprostinil): 0.58
NT-proBNP, Ratio to baseline (NT-proBNP; wk 16, LS mean of log-transformed data ± SE): 0.85 ± 0.06
